Test results as given in US9540388B2, “P2X7 modulators” (Janssen Pharmaceutica NV, priority 2013, dated 2017).

Assays:
P2X7 [1] = target: T1, P2X7 (Homo sapiens (Human), UniProt Q99572); test: Ca2+ flux (FLIPR) in 1321N1 cells expressing recombinant human P2X7; assay type: cell-based; conditions: Table 2, additional runs; 250 μM BzATP
Protocol: (§1) P2X7 Antagonism in Recombinant Human P2X7 Cells or Recombinant Rat P2X7 Cells: (a) Ca^2+ Flux and (b) Radioligand Binding
(§2) 1321N1 cells expressing the recombinant human or rat P2X7 channel was cultured in HyQ DME/(HyClone/Dulbecco's Modified Eagle Medium) high glucose supplemented with 10% Fetal Bovine Serum (FBS) and appropriate selection marker. Cells were seeded at a density of 25000 cells/well (96-well clear bottom black walled plates) in 100 μl volume/well. On the day of the experiment, cell plates were washed with assay buffer, containing (in mM): 130 NaCl, 2 KCl, 1 CaCl2, 1 MgCl2, 10 HEPES, 5 glucose; pH 7.40 and 300 mOs. After the wash, cells were loaded with the Calcium-4 dye (Molecular Device) and incubated in the dark for 60 minutes. Test compounds were prepared at 250× the test concentration in neat DMSO. Intermediate 96-well compound plates were prepared by transferring 1.2 μL of the compound into 300 μL of assay buffer. A further 3× dilution occurred when transferring 50 μL/well of the compound plate to 100 μL/well in the cell plate. Cells were incubated with test compounds and dye for 30 minutes. […] The fluorescence change was measured 180 seconds after adding the agonist.

rat P2X7 [2] = target: T2, rat P2X7 (Rattus norvegicus (Rat), UniProt Q64663); test: Radioligand binding, recombinant rat P2X7-1321N1 cell membranes, tritiated A-804598; conditions: Table 2, additional runs
Protocol: as §1
(§3) human or rat P2X7-1321N1 cells were collected and frozen @−80° C. On the day of the experiment, cell membrane preparations were made according to standard published methods. […] The compound can be prepared as described in the literature. […] The assay was terminated by filtration (GF/B filters pre-soaked with 0.3% PEI) and washed with washing buffer (Tris-HCl 50 mM). The IC50 generated in the binding assay was corrected for tracer concentration and affinity of the tracer to derive at the affinity (Ki) of the test compounds. […] Data are analyzed and graphed on Graphpad Prism 5.

P2X7 [3] = target: T1, P2X7; test: Radioligand binding, recombinant human P2X7-1321N1 cell membranes, tritiated A-804598; conditions: Table 2, additional runs
Protocol: as §1, §3

rat P2X7 [4] = target: T2, rat P2X7; test: Ca2+ flux (FLIPR) in 1321N1 cells expressing recombinant rat P2X7; assay type: cell-based; conditions: Table 2, additional runs; 250 μM BzATP
Protocol: as §1, §2

T1 sequence (Q99572 whole entry): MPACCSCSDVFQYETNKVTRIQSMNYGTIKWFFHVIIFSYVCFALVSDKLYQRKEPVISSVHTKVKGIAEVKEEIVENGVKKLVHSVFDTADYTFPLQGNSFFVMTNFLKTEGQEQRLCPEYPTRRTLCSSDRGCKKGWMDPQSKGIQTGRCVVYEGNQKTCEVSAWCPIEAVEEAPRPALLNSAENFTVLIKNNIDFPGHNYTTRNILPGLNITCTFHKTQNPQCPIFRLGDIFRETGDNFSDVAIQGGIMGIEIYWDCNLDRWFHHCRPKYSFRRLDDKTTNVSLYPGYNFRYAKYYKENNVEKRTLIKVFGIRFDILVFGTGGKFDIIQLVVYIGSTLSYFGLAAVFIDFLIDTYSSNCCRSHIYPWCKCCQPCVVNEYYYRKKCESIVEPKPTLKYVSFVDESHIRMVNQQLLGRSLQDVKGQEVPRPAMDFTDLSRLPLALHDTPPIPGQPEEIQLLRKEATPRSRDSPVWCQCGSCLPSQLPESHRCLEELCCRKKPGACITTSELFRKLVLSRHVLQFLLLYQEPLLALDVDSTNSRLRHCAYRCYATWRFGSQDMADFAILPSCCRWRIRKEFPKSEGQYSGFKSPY
T2 sequence (Q64663 whole entry): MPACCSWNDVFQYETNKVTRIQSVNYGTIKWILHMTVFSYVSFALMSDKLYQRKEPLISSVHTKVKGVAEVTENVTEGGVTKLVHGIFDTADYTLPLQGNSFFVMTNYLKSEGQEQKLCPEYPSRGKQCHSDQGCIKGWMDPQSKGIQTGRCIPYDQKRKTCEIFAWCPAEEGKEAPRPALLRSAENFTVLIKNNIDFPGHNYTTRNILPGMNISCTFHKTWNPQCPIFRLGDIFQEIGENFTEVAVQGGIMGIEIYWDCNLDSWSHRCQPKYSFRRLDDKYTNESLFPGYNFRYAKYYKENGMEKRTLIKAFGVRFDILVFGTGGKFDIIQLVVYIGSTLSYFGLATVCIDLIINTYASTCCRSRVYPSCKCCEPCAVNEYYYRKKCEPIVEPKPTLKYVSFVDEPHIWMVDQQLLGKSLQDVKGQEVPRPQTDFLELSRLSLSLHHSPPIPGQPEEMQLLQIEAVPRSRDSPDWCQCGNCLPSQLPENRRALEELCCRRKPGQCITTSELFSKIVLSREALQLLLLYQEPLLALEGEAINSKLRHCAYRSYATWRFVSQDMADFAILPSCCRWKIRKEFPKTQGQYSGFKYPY

| Structure (SMILES) | IC50 (P2X7 [1]) [nM] | Ki (rat P2X7 [2]) [nM] | Ki (P2X7 [3]) [nM] | IC50 (rat P2X7 [4]) [nM] |
| --- | --- | --- | --- | --- |
| O=C(c1ccc(F)c(Cl)c1Cl)N1[C@@H]2CCC[C@H]1c1nnc(-c3ccccn3)n1C2 (stereo in doubt) [Example 203, (6R,10S)-11-[(2,3-Dichloro-4-fluorophenyl)carbonyl]-3-pyridin-2-yl-5,6,7,8,9,10-hexahydro-6,10-epimino[1,2,4]triazolo[4,3-a]azocine] | 25.3 | 2.2 | 5.3 | 20 |
| Cc1nc(-c2nnc3n2C[C@H]2CCC[C@@H]3N2C(=O)c2cccc(C(F)(F)F)c2Cl)ccc1F (stereo in doubt) [Example 193, (6R,10S)-11-{[2-Chloro-3-(trifluoromethyl)phenyl]carbonyl}-3-(5-fluoro-6-methylpyridin-2-yl)-5,6,7,8,9,10-hexahydro-6,10-epimino[1,2,4]triazolo[4,3-a]azocine] | 30.7 | 4.9 | 70.8 | 41.1 |
| O=C(c1ccnc(C(F)(F)F)c1Cl)N1[C@@H]2CCC[C@H]1c1nnc(-c3ccccn3)n1C2 (stereo in doubt) [Example 199, (6R,10S)-11-{[3-Chloro-2-(trifluoromethyl)pyridin-4-yl]carbonyl}-3-pyridin-2-yl-5,6,7,8,9,10-hexahydro-6,10-epimino[1,2,4]triazolo[4,3-a]azocine] | 29.5 | 5 | 25.1 | 12.7 |
| O=C(c1ccc(F)c(C(F)(F)F)c1Cl)N1[C@@H]2CCC[C@H]1c1nnc(-c3ccccn3)n1C2 (stereo in doubt) [Example 200, (6R,10S)-11-{[2-Chloro-4-fluoro-3-(trifluoromethyl)phenyl]carbonyl}-3-pyridin-2-yl-5,6,7,8,9,10-hexahydro-6,10-epimino[1,2,4]triazolo[4,3-a]azocine] | […] | 3.2 | 10.7 | 10.2 |
| O=C(c1ccnc(C(F)(F)F)c1F)N1[C@@H]2CCC[C@H]1c1nnc(-c3ccccn3)n1C2 (stereo in doubt) [Example 198, (6R,10S)-11-{[3-Fluoro-2-(trifluoromethyl)pyridin-4-yl]carbonyl}-3-pyridin-2-yl-5,6,7,8,9,10-hexahydro-6,10-epimino[1,2,4]triazolo[4,3-a]azocine] | 20.9 | 6.2 | 9.8 | 327 |
| O=C(c1cccc(C(F)(F)F)c1Cl)N1[C@@H]2CCC[C@H]1c1nnc(-c3ccncn3)n1C2 (stereo in doubt) [Example 197, (6R,10S)-11-{[2-Chloro-3-(trifluoromethyl)phenyl]carbonyl}-3-pyrimidin-4-yl-5,6,7,8,9,10-hexahydro-6,10-epimino[1,2,4]triazolo[4,3-a]azocine] | 10.7 | 63.1 | 19.1 | 1490 |
| Cc1c(C(=O)N2[C@@H]3CCC[C@H]2c2nnc(-c4ccccn4)n2C3)cccc1C(F)(F)F (stereo in doubt) [Example 201, (6R,10S)-11-{[2-Methyl-3-(trifluoromethyl)phenyl]carbonyl}-3-pyridin-2-yl-5,6,7,8,9,10-hexahydro-6,10-epimino[1,2,4]triazolo[4,3-a]azocine] | 14 | 3.2 | 11.5 | 726 |
| O=C(c1cccc(C(F)(F)F)c1Cl)N1[C@@H]2CCC[C@H]1c1nnc(-c3cccnn3)n1C2 (stereo in doubt) [Example 195, (6R,10S)-11-{[2-Chloro-3-(trifluoromethyl)phenyl]carbonyl}-3-pyridazin-3-yl-5,6,7,8,9,10-hexahydro-6,10-epimino[1,2,4]triazolo[4,3-a]azocine] | 40 |  | 20.9 | > 10000 |
| O=C(c1cccc(C(F)(F)F)c1Cl)N1[C@@H]2CCC[C@H]1c1nnc(-c3cc(C(F)(F)F)ccn3)n1C2 (stereo in doubt) [Example 196, (6R,10S)-11-{[2-Chloro-3-(trifluoromethyl)phenyl]carbonyl}-3-[4-(trifluoromethyl)pyridin-2-yl]-5,6,7,8,9,10-hexahydro-6,10-epimino[1,2,4]triazolo[4,3-a]azocine] | 1.6 | 5.8 | 21.9 | 1.7 |
| Cc1ccnc(-c2nnc3n2C[C@H]2CCC[C@@H]3N2C(=O)c2cccc(C(F)(F)F)c2Cl)c1 (stereo in doubt) [Example 194, (6R,10S)-11-{[2-Chloro-3-(trifluoromethyl)phenyl]carbonyl}-3-(4-methylpyridin-2-yl)-5,6,7,8,9,10-hexahydro-6,10-epimino[1,2,4]triazolo[4,3-a]azocine] | 17.3 | 3.1 | 14.1 | 7.4 |
| O=C(c1ccc(Cl)c(F)c1Cl)N1[C@@H]2CCC[C@H]1c1nnc(-c3ccccn3)n1C2 (stereo in doubt) [Example 202, (6R,10S)-11-[(2,4-Dichloro-3-fluorophenyl)carbonyl]-3-pyridin-2-yl-5,6,7,8,9,10-hexahydro-6,10-epimino[1,2,4]triazolo[4,3-a]azocine] | 17.6 | 5.8 | 3.9 | 462 |
